Experimental data taken from US6376497B1, “Antifungal azole derivatives having a fluorinated vinyl group and process for preparing same” (Korea Research Institute of Chemical Technology, priority 1999, dated 2002).
≈ marks a conversion by molar mass, not a printed value.

Legend:
Assay in all cases: In vitro antifungal activity, microbroth dilution MIC
Type in all cases: cell-based
[1] = system: Aspergillus furnigatus B. 19119; conditions: 4 to 48 hours; for Minimal inhibitory concentration(MIC), A furnigatus B. 19119: RPMI-1640, 35° C., no growth observed; for Minimal inhibitory concentration (MIC): A furnigatus B. 19119, RPMI-1640, 35° C.
Procedure, shortened: (§1)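 Broth microdilution adapted from NCCLS M27, in RPMI-1640 with 0.165 M MOPS, pH 7.0. Yeast or mould inoculum at 2×10^3 CFU/ml was mixed 1:1 with DMSO-derived compound solutions (200 to 0.10 μg/ml before mixing) and incubated at 35 °C for 4 to 48 h. MIC was the concentration showing no growth.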

[2] = system: Torulopsis glabrata B. 16205; conditions: 4 to 48 hours; for Minimal inhibitory concentration(MIC), T. glabrata B. 16205: RPMI-1640, 35° C., no growth observed; for Minimal inhibitory concentration (MIC): T. glabrata B. 16205, RPMI-1640, 35° C.
Procedure, shortened: as §1

[3] = system: Candida parapsitosis A. 7330; conditions: 4 to 48 hours; for Minimal inhibitory concentration(MIC), C. parapsitosis A. 7330: RPMI-1640, 35° C., no growth observed; for Minimal inhibitory concentration (MIC): C. parapsitosis A. 7330, RPMI-1640, 35° C.
Procedure, shortened: as §1

[4] = system: Candida pseudotropicalis K. 11658; conditions: 4 to 48 hours; for Minimal inhibitory concentration(MIC), C. pseudotropicalis K. 11658: RPMI-1640, 35° C., no growth observed; for Minimal inhibitory concentration (MIC): C. pseudotropicalis K. 11658, RPMI-1640, 35° C.
Procedure, shortened: as §1

[5] = system: Candida krusei K. 11655; conditions: 4 to 48 hours; for Minimal inhibitory concentration(MIC), C. krusei K. 11655: RPMI-1640, 35° C., no growth observed; for Minimal inhibitory concentration (MIC): C. krusei K. 11655, RPMI-1640, 35° C.
Procedure, shortened: as §1

[6] = system: Aspergillus niger A. 16404; conditions: 4 to 48 hours; for Minimal inhibitory concentration(MIC), A. niger A. 16404: RPMI-1640, 35° C., no growth observed; for Minimal inhibitory concentration (MIC): A. niger A. 16404, RPMI-1640, 35° C.
Procedure, shortened: as §1

[7] = system: Candida tropicalis A. 13803; conditions: 4 to 48 hours; for Minimal inhibitory concentration(MIC), C. tropicalis A. 13803: RPMI-1640, 35° C., no growth observed; for Minimal inhibitory concentration (MIC): C. tropicalis A. 13803, RPMI-1640, 35° C.
Procedure, shortened: as §1

[8] = system: Candida albicans IFO. 1385; conditions: 4 to 48 hours; for Minimal inhibitory concentration(MIC), C. albicans IFO. 1385: RPMI-1640, 35° C., no growth observed; for Minimal inhibitory concentration (MIC): C. albicans IFO. 1385, RPMI-1640, 35° C.
Procedure, shortened: as §1

[9] = system: Cryptococcus neoformans A. 34144; conditions: 4 to 48 hours; for Minimal inhibitory concentration(MIC), Cry. neoformans A. 34144: RPMI-1640, 35° C., no growth observed; for Minimal inhibitory concentration (MIC): Cry. neoformans A. 34144, RPMI-1640, 35° C.
Procedure, shortened: as §1

[10] = system: Cryptococcus neoformans IFM. 40092; conditions: 4 to 48 hours; for Minimal inhibitory concentration(MIC), Cry. neoformans IFM. 40092: RPMI-1640, 35° C., no growth observed; for Minimal inhibitory concentration (MIC): Cry. neoformans IFM. 40092, RPMI-1640, 35° C.
Procedure, shortened: as §1

[11] = system: Cryptococcus neoformans B. 42419; conditions: 4 to 48 hours; for Minimal inhibitory concentration(MIC), Cry. neoformans B. 42419: RPMI-1640, 35° C., no growth observed; for Minimal inhibitory concentration (MIC): Cry. neoformans B. 42419, RPMI-1640, 35° C.
Procedure, shortened: as §1

[12] = system: Trichophyton mentagrophytes A. 9129; conditions: 4 to 48 hours; for Minimal inhibitory concentration(MIC), T. mentagrophytes A. 9129: RPMI-1640, 35° C., no growth observed; for Minimal inhibitory concentration (MIC): T. mentagrophytes A. 9129, RPMI-1640, 35° C.
Procedure, shortened: as §1

[13] = system: Trichophyton mentagrophytes B. 32663; conditions: 4 to 48 hours; for Minimal inhibitory concentration(MIC), T. mentagrophytes B. 32663: RPMI-1640, 35° C., no growth observed; for Minimal inhibitory concentration (MIC): T. mentagrophytes B. 32663, RPMI-1640, 35° C.
Procedure, shortened: as §1

[14] = system: Candida albicans C1-2; conditions: 4 to 48 hours; for Minimal inhibitory concentration(MIC), C. albicans C1-2: RPMI-1640, 35° C., no growth observed; for Minimal inhibitory concentration (MIC): C. albicans C1-2, RPMI-1640, 35° C.
Procedure, shortened: as §1

[15] = system: Candida albicans A. 10231; conditions: 4 to 48 hours; for Minimal inhibitory concentration(MIC), C. albicans A. 10231: RPMI-1640, 35° C., no growth observed; for Minimal inhibitory concentration (MIC): C. albicans A. 10231, RPMI-1640, 35° C.
Procedure, shortened: as §1

Minimal inhibitory concentration(MIC), A furnigatus B. 19119 [1]	Minimal inhibitory concentration(MIC), T. glabrata B. 16205 [2]	Minimal inhibitory concentration(MIC), C. parapsitosis A. 7330 [3]	Minimal inhibitory concentration(MIC), C. pseudotropicalis K. 11658 [4]	Minimal inhibitory concentration(MIC), C. krusei K. 11655 [5]	Minimal inhibitory concentration(MIC), A. niger A. 16404 [6]	Minimal inhibitory concentration(MIC), C. tropicalis A. 13803 [7]	Minimal inhibitory concentration(MIC), C. albicans IFO. 1385 [8]	Minimal inhibitory concentration(MIC), Cry. neoformans A. 34144 [9]	Minimal inhibitory concentration(MIC), Cry. neoformans IFM. 40092 [10]	Minimal inhibitory concentration(MIC), Cry. neoformans B. 42419 [11]	Minimal inhibitory concentration(MIC), T. mentagrophytes A. 9129 [12]	Minimal inhibitory concentration(MIC), T. mentagrophytes B. 32663 [13]	Minimal inhibitory concentration(MIC), C. albicans C1-2 [14]	Minimal inhibitory concentration(MIC), C. albicans A. 10231 [15]	Minimal inhibitory concentration (MIC) [1]	Minimal inhibitory concentration (MIC) [2]	Minimal inhibitory concentration (MIC) [3]	Minimal inhibitory concentration (MIC) [4]	Minimal inhibitory concentration (MIC) [5]	SMILES	other results
>100 µg/mL	50.0 µg/mL	>100 µg/mL	>100 µg/mL	>100 µg/mL	>100 µg/mL	100 µg/mL	1.56 µg/mL	1.56 µg/mL	0.39 µg/mL	3.13 µg/mL	6.25 µg/mL	3.13 µg/mL	25.0 µg/mL	25.0 µg/mL	–	–	–	–	–	Cc1ccc(C(=C(F)Oc2ccc(OCC3COC(Cn4cncn4)(c4ccc(Cl)cc4Cl)O3)cc2)C(F)(F)F)cc1 (mixture of isomers) [Ex. 120]	–
–	–	–	–	–	–	–	–	–	–	–	–	–	–	–	6.25 µg/mL (≈ 13.1 µM)	6.25 µg/mL (≈ 13.1 µM)	12.5 µg/mL (≈ 26.2 µM)	6.25 µg/mL (≈ 13.1 µM)	6.25 µg/mL (≈ 13.1 µM)	CCc1ccc(C=C(F)OCC2COC(Cn3ccnc3)(c3ccc(Cl)cc3Cl)O2)cc1 (stereo not drawn) [Ex. 4]	Minimal inhibitory concentration (MIC) [6]: 6.25 µg/mL (≈ 13.1 µM); Minimal inhibitory concentration (MIC) [7]: 12.5 µg/mL (≈ 26.2 µM); Minimal inhibitory concentration (MIC) [8]: 1.56 µg/mL (≈ 3.27 µM); Minimal inhibitory concentration (MIC) [9]: 3.13 µg/mL (≈ 6.56 µM); Minimal inhibitory concentration (MIC) [10]: 1.56 µg/mL (≈ 3.27 µM); Minimal inhibitory concentration (MIC) [11]: 3.13 µg/mL (≈ 6.56 µM); Minimal inhibitory concentration (MIC) [12]: 3.13 µg/mL (≈ 6.56 µM); Minimal inhibitory concentration (MIC) [13]: 1.56 µg/mL (≈ 3.27 µM); Minimal inhibitory concentration (MIC) [14]: 6.25 µg/mL (≈ 13.1 µM); Minimal inhibitory concentration (MIC) [15]: 12.5 µg/mL (≈ 26.2 µM)
–	–	–	–	–	–	–	–	–	–	–	–	–	–	–	50.0 µg/mL (≈ 91.7 µM)	12.5 µg/mL (≈ 22.9 µM)	>100 µg/mL	100 µg/mL (≈ 183 µM)	>100 µg/mL	Cc1cc(C)cc(C(=C(F)OCC2COC(Cn3ccnc3)(c3ccc(Cl)cc3Cl)O2)C(F)(F)F)c1 (stereo not drawn) [Ex. 24]	Minimal inhibitory concentration (MIC) [6]: 100 µg/mL (≈ 183 µM); Minimal inhibitory concentration (MIC) [7]: 25.0 µg/mL (≈ 45.8 µM); Minimal inhibitory concentration (MIC) [8]: 0.78 µg/mL (≈ 1.43 µM); Minimal inhibitory concentration (MIC) [9]: 0.78 µg/mL (≈ 1.43 µM); Minimal inhibitory concentration (MIC) [10]: 0.39 µg/mL (≈ 0.715 µM); Minimal inhibitory concentration (MIC) [11]: 1.56 µg/mL (≈ 2.86 µM); Minimal inhibitory concentration (MIC) [12]: 12.5 µg/mL (≈ 22.9 µM); Minimal inhibitory concentration (MIC) [13]: 6.25 µg/mL (≈ 11.5 µM); Minimal inhibitory concentration (MIC) [14]: 6.25 µg/mL (≈ 11.5 µM); Minimal inhibitory concentration (MIC) [15]: 6.25 µg/mL (≈ 11.5 µM)
>100 µg/mL	50.0 µg/mL	>100 µg/mL	>100 µg/mL	>100 µg/mL	>100 µg/mL	>100 µg/mL	3.13 µg/mL	3.13 µg/mL	0.78 µg/mL	3.13 µg/mL	25.0 µg/mL	12.5 µg/mL	50.0 µg/mL	25.0 µg/mL	–	–	–	–	–	Cc1ccc(C(=C(F)Oc2ccc(OCC3COC(Cn4ccnc4)(c4ccc(Cl)cc4Cl)O3)cc2)C(F)(F)F)cc1 (mixture of isomers) [Ex. 94]	–
